# PubChem BioAssay AID2060504 (Molecular Pharmacology Branch, DTP, NCI, 2025)
# Tested on: 636577-100-R-J1-PDC complex spheroid viability
# Assay: Anticancer human tumor 636577-100-R-J1-PDC patient-derived endometrial adenocarcinoma cell line growth inhibition [GQUAD]
# Conditions: for IC50: curve of first compound; for viability, T/C: stronger effect = lower value
# Procedure, shortened: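 Tumor cells were grown as complex spheroids with HUVEC endothelial cells and mesenchymal stem cells as stroma. G-quadruplex stabilizers were combined with targeted agents over half-log dilutions from near the clinical Cmax, or from 10 microM.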
# [1] = second compound 0.0316 µM, first compound 0.0316 µM
# [2] = second compound 0.0316 µM, first compound 0.1 µM
# [3] = second compound 0.0316 µM, first compound 0.316 µM
# [4] = second compound 0.0316 µM, first compound 1 µM
# [5] = second compound 0.0316 µM, first compound 3.16 µM
# [6] = second compound 0.0316 µM, first compound 10 µM
# [7] = second compound 0.1 µM, first compound 0.0316 µM
# [8] = second compound 0.1 µM, first compound 0.1 µM
# [9] = second compound 0.1 µM, first compound 0.316 µM
# [10] = second compound 0.1 µM, first compound 1 µM
# [11] = second compound 0.1 µM, first compound 3.16 µM
# [12] = second compound 0.1 µM, first compound 10 µM
# [13] = second compound 0.316 µM, first compound 0.0316 µM
# [14] = second compound 0.316 µM, first compound 0.1 µM
# [15] = second compound 0.316 µM, first compound 0.316 µM
# [16] = second compound 0.316 µM, first compound 1 µM
# [17] = second compound 0.316 µM, first compound 3.16 µM
# [18] = second compound 0.316 µM, first compound 10 µM
# [19] = second compound 1 µM, first compound 0.0316 µM
# [20] = second compound 1 µM, first compound 0.1 µM
# [21] = second compound 1 µM, first compound 0.316 µM
# [22] = second compound 1 µM, first compound 1 µM
# [23] = second compound 1 µM, first compound 3.16 µM
# [24] = second compound 1 µM, first compound 10 µM
# [25] = second compound 3.16 µM, first compound 0.0316 µM
# [26] = second compound 3.16 µM, first compound 0.1 µM
# [27] = second compound 3.16 µM, first compound 0.316 µM
# [28] = second compound 3.16 µM, first compound 1 µM
# [29] = second compound 3.16 µM, first compound 3.16 µM
# [30] = second compound 3.16 µM, first compound 10 µM
# [31] = second compound 10 µM, first compound 0.0316 µM
# [32] = second compound 10 µM, first compound 0.1 µM
# [33] = second compound 10 µM, first compound 0.316 µM
# [34] = second compound 10 µM, first compound 1 µM
# [35] = second compound 10 µM, first compound 3.16 µM
# [36] = second compound 10 µM, first compound 10 µM
# 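Also: viability read after seven days of drug exposure.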
# 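For viability, T/C in this document: luminescence signal used as a proxy for viable cells; 100% = DMSO vehicle control wells.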
smiles,measurement,setting,value
CC1COCCN1c1cc(-c2ccnn2C)c2ccnc(-c3ccn[nH]3)c2n1 (stereo unspecified) + Cc1cnc(CNC(=O)c2c(=O)c3ccc(N4CCCN(C)CC4)nc3n3c2sc2ccccc23)cn1,IC50,second compound 0.0316 µM,< 0.0316 µM
same,IC50,second compound 0.1 µM,< 0.0316 µM
same,IC50,second compound 0.316 µM,< 0.0316 µM
same,IC50,second compound 1 µM,< 0.0316 µM
same,IC50,second compound 3.16 µM,< 0.0316 µM
same,IC50,second compound 10 µM,< 0.0316 µM
same,"viability, T/C",[1],31.9%
same,"viability, T/C",[2],20.2%
same,"viability, T/C",[3],18.4%
same,"viability, T/C",[4],9.61%
same,"viability, T/C",[5],5.71%
same,"viability, T/C",[6],3.77%
same,"viability, T/C",[7],22.7%
same,"viability, T/C",[8],19.2%
same,"viability, T/C",[9],17.2%
same,"viability, T/C",[10],11.2%
same,"viability, T/C",[11],6.18%
same,"viability, T/C",[12],3.47%
same,"viability, T/C",[13],15.1%
same,"viability, T/C",[14],19.7%
same,"viability, T/C",[15],17.7%
same,"viability, T/C",[16],12.5%
same,"viability, T/C",[17],6.51%
same,"viability, T/C",[18],2.82%
same,"viability, T/C",[19],17.9%
same,"viability, T/C",[20],18.9%
same,"viability, T/C",[21],15.6%
same,"viability, T/C",[22],14.7%
same,"viability, T/C",[23],7.08%
same,"viability, T/C",[24],3.42%
same,"viability, T/C",[25],18.9%
same,"viability, T/C",[26],17.4%
same,"viability, T/C",[27],16.8%
same,"viability, T/C",[28],14%
same,"viability, T/C",[29],7.38%
same,"viability, T/C",[30],3.36%
same,"viability, T/C",[31],16.8%
same,"viability, T/C",[32],16.6%
same,"viability, T/C",[33],17.2%
same,"viability, T/C",[34],10.1%
same,"viability, T/C",[35],6.54%
same,"viability, T/C",[36],3.1%
COc1cc(C2c3cc4c(cc3C(OC3OC5COC(C)OC5C(O)C3O)C3COC(=O)C23)OCO4)cc(OC)c1O (stereo unspecified) + CN(C)c1ccc(Nc2c3ccc(NC(=O)CCN4CCCC4)cc3nc3cc(NC(=O)CCN4CCCC4)ccc23)cc1,IC50,second compound 0.0316 µM,0.0651 µM
same,IC50,second compound 0.1 µM,0.0467 µM
same,IC50,second compound 0.316 µM,0.0469 µM
same,IC50,second compound 1 µM,0.0324 µM
same,IC50,second compound 3.16 µM,< 0.0316 µM
same,IC50,second compound 10 µM,< 0.0316 µM
same,"viability, T/C",[1],77.5%
same,"viability, T/C",[2],33.3%
same,"viability, T/C",[3],20.7%
same,"viability, T/C",[4],17.2%
same,"viability, T/C",[5],15.7%
same,"viability, T/C",[6],13.8%
same,"viability, T/C",[7],61.4%
same,"viability, T/C",[8],27.9%
same,"viability, T/C",[9],18.8%
same,"viability, T/C",[10],19%
same,"viability, T/C",[11],18.5%
same,"viability, T/C",[12],14.6%
same,"viability, T/C",[13],57%
same,"viability, T/C",[14],37.1%
same,"viability, T/C",[15],22.3%
same,"viability, T/C",[16],17.7%
same,"viability, T/C",[17],15.7%
same,"viability, T/C",[18],12.9%
same,"viability, T/C",[19],50.4%
same,"viability, T/C",[20],30.6%
same,"viability, T/C",[21],18.5%
same,"viability, T/C",[22],20.1%
same,"viability, T/C",[23],16.2%
same,"viability, T/C",[24],13.8%
same,"viability, T/C",[25],27.6%
same,"viability, T/C",[26],20.5%
same,"viability, T/C",[27],19.6%
same,"viability, T/C",[28],17.4%
same,"viability, T/C",[29],16.8%
same,"viability, T/C",[30],13.1%
same,"viability, T/C",[31],5.34%
same,"viability, T/C",[32],4.62%
same,"viability, T/C",[33],4.08%
same,"viability, T/C",[34],4.02%
same,"viability, T/C",[35],2.93%
same,"viability, T/C",[36],2.35%
CCc1c2c(nc3ccc(O)cc13)-c1cc3c(c(=O)n1C2)COC(=O)[C@]3(O)CC + CN(C)c1ccc(Nc2c3ccc(NC(=O)CCN4CCCC4)cc3nc3cc(NC(=O)CCN4CCCC4)ccc23)cc1,IC50,second compound 0.0316 µM,< 0.000999 µM
same,IC50,second compound 0.1 µM,< 0.000999 µM
same,IC50,second compound 0.316 µM,< 0.000999 µM
same,IC50,second compound 1 µM,< 0.000999 µM
same,IC50,second compound 3.16 µM,< 0.000999 µM
same,IC50,second compound 10 µM,< 0.000999 µM
same,"viability, T/C","second compound 0.0316 µM, first compound 0.000999 µM",46.8%
same,"viability, T/C","second compound 0.0316 µM, first compound 0.00316 µM",23.4%
same,"viability, T/C","second compound 0.0316 µM, first compound 0.00999 µM",26%
same,"viability, T/C",[1],16.6%
same,"viability, T/C","second compound 0.0316 µM, first compound 0.0999 µM",17.7%
same,"viability, T/C",[3],12.4%
same,"viability, T/C","second compound 0.1 µM, first compound 0.000999 µM",43.7%
same,"viability, T/C","second compound 0.1 µM, first compound 0.00316 µM",21.6%
same,"viability, T/C","second compound 0.1 µM, first compound 0.00999 µM",22.2%
same,"viability, T/C",[7],18.1%
same,"viability, T/C","second compound 0.1 µM, first compound 0.0999 µM",17%
same,"viability, T/C",[9],12.9%
same,"viability, T/C","second compound 0.316 µM, first compound 0.000999 µM",41.9%
same,"viability, T/C","second compound 0.316 µM, first compound 0.00316 µM",23.1%
same,"viability, T/C","second compound 0.316 µM, first compound 0.00999 µM",20.3%
same,"viability, T/C",[13],21.1%
same,"viability, T/C","second compound 0.316 µM, first compound 0.0999 µM",19.2%
same,"viability, T/C",[15],13.2%
same,"viability, T/C","second compound 1 µM, first compound 0.000999 µM",39.4%
same,"viability, T/C","second compound 1 µM, first compound 0.00316 µM",21.4%
same,"viability, T/C","second compound 1 µM, first compound 0.00999 µM",24.2%
same,"viability, T/C",[19],22.6%
same,"viability, T/C","second compound 1 µM, first compound 0.0999 µM",19.4%
same,"viability, T/C",[21],13.4%
same,"viability, T/C","second compound 3.16 µM, first compound 0.000999 µM",29.8%
same,"viability, T/C","second compound 3.16 µM, first compound 0.00316 µM",22%
same,"viability, T/C","second compound 3.16 µM, first compound 0.00999 µM",19.5%
same,"viability, T/C",[25],18.4%
same,"viability, T/C","second compound 3.16 µM, first compound 0.0999 µM",16.8%
same,"viability, T/C",[27],9.28%
same,"viability, T/C","second compound 10 µM, first compound 0.000999 µM",4.84%
same,"viability, T/C","second compound 10 µM, first compound 0.00316 µM",4.42%
same,"viability, T/C","second compound 10 µM, first compound 0.00999 µM",4.45%
same,"viability, T/C",[31],4.23%
same,"viability, T/C","second compound 10 µM, first compound 0.0999 µM",4.1%
same,"viability, T/C",[33],2.29%
